Reference: US11530219B2, “Ligands to cereblon (CRBN)” (DANA-FARBER CANCER INSTITUTE, INC., priority 2018, dated 2022)
pEC50, pIC50, pKi: −log10 of the molar value.

How the values were obtained:
[1] = target: DDB1ΔB-CRBN (Homo sapiens (Human), UniProt Q96SW2); test: Atto565-Lenalidomide displacement assay (fluorescence polarization, CRBN binding); conditions: for pIC50: 10 nM Atto565-Lenalidomide, 100 nM DDB1ΔB-CRBN, n=2; for pKi: calculated from IC50 with probe Kd of 40 nM, competitive model
Procedure: Various inventive compounds were analyzed for cereblon binding. […] Compound titrations were incubated for 60 min at room temperature. The change in fluorescence polarization was monitored using a PHERAstar® FS microplate reader (BMG Labtech) for 1 h in 120s cycles.

[2] = target: CRBN (Homo sapiens (Human), UniProt Q96SW2); test: Cellular CRBN dBET6 displacement assay (BRD4BD2-GFP/mCherry reporter cells); format: cell-based; conditions: Flip-In 293 cells stably expressing BRD4BD2-GFP, 100 nM dBET6, 5 hours; read-out: Cellular CRBN-BRD4 dBET6 displacement EC50
Chain of CRBN (Q96SW2 whole entry): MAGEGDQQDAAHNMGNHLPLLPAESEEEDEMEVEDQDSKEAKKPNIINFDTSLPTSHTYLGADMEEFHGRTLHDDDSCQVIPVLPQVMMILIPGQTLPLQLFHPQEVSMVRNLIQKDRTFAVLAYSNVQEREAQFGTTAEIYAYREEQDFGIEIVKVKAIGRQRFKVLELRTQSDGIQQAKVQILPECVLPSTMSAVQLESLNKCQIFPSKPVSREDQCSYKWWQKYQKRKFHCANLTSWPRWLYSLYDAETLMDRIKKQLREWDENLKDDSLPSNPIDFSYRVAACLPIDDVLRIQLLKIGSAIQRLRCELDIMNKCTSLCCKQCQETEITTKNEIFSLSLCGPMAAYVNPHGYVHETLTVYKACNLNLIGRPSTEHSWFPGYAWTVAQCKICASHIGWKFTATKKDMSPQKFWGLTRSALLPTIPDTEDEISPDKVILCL
Procedure: BRD4BD2 were subcloned into mammalian pcDNA5/FRT Vector (Ampicillin and Hygromycin B resistant) modified to contain MCS-eGFP-P2A-mCherry. […] Following a 2-3 passage cycle, FACS (FACSAria™ II, BD) was used to enrich for cells expressing eGFP and mCherry.
Signal from minimal 3000 events per well was acquired and the eGFP and mCherry florescence monitored. Data was analyzed using FlowJo® (FlowJo®, LCC). […] The eGFP protein abundance relative to mCherry was then quantified as a ten-fold amplified ratio for each individual cell using the formula: 10×eGFP/mCherry. The median of the ratio was then calculated per set, normalized to the median of the DMSO ratio.
This assay provided a readout of cellular CRBN binding impacted by the permeability of the molecule tested.

Chain of DDB1ΔB-CRBN (Q96SW2 whole entry, stated change not applied): as the sequence (Q96SW2 whole entry) above

Row | Structure (SMILES) | pIC50 [1] | pKi [1] | pEC50 [2]
1 | O=C1CCC(N2Cc3c(NC(=O)CNc4ccnc(Nc5ccccc5F)n4)cccc3C2=O)C(=O)N1 (stereo not shown) [Compound 1, N-(2-(2,6-dioxopiperidin-3-yl)-1-oxoisoindolin-4-yl)-2-((2-((2-fluorophenyl)amino)pyrimidin-4-yl)amino)acetamide] | 4.53 | 5.07 | 
2 | O=C1CCC(N2Cc3c(NC(=O)CNc4ccnc(Nc5ccc6c(c5)CCC6)n4)cccc3C2=O)C(=O)N1 (stereo not shown) [Compound 2, 2-((2-((2,3-dihydro-1H-inden-5-yl)amino)pyrimidin-4-yl)amino)-N-(2-(2,6-dioxopiperidin-3-yl)-1-oxoisoindolin-4-yl)acetamide] | 4.32 | 4.87 | 4.32
3 | O=C1CCC(N2Cc3c(NC(=O)CNc4ccnc(NCc5ccc6c(c5)OCO6)n4)cccc3C2=O)C(=O)N1 (stereo not shown) [Compound 3, 2-((2-((benzo[d][1,3]dioxol-5-ylmethyl)amino)pyrimidin-4-yl)amino)-N-(2-(2,6-dioxopiperidin-3-yl)-1-oxoisoindolin-4-yl)acetamide] | 4.90 | 4.87 | 
4 | O=C1CCC(N2Cc3c(NC(=O)CNc4ccnc(N5CCC[C@H]5CO)n4)cccc3C2=O)C(=O)N1 (stereo partly drawn) [Compound 4, N-(2-(2,6-dioxopiperidin-3-yl)-1-oxoisoindolin-4-yl)-2-((2-((S)-2-(hydroxymethyl)pyrrolidin-1-yl)pyrimidin-4-yl)amino)acetamide] | 5.07 | 5.62 | 
5 | O=C1CCC(N2Cc3c(NC(=O)CNc4ccnc(Nc5ccc6c(c5)OCO6)n4)cccc3C2=O)C(=O)N1 (stereo not shown) [Compound 5, 2-((2-(benzo[d][1,3]dioxol-5-ylamino)pyrimidin-4-yl)amino)-N-(2-(2,6-dioxopiperidin-3-yl)-1-oxoisoindolin-4-yl)acetamide] | 4.37 | 4.91 | 
6 | O=C1CCC(N2Cc3c(NC(=O)CNc4ccnc(NCCCN5CCCC5=O)n4)cccc3C2=O)C(=O)N1 (stereo not shown) [Compound 6, N-(2-(2,6-dioxopiperidin-3-yl)-1-oxoisoindolin-4-yl)-2-((2-((3-(2-oxopyrrolidin-1-yl)propyl)amino)pyrimidin-4-yl)amino)acetamide] | 4.64 | 5.19 | 
7 | COc1ccc(Nc2nccc(NCC(=O)Nc3cccc4c3CN(C3CCC(=O)NC3=O)C4=O)n2)cc1 (stereo not shown) [Compound 7, N-(2-(2,6-dioxopiperidin-3-yl)-1-oxoisoindolin-4-yl)-2-((2-((4-methoxyphenyl)amino)pyrimidin-4-yl)amino)acetamide] | 4.41 | 4.95 | 
8 | COc1cccc(-c2nccc(NCC(=O)Nc3cccc4c3CN(C3CCC(=O)NC3=O)C4=O)n2)c1 (stereo not shown) [Compound 9, N-(2-(2,6-dioxopiperidin-3-yl)-1-oxoisoindolin-4-yl)-2-((2-(3-methoxyphenyl)pyrimidin-4-yl)amino)acetamide] | 4.66 | 5.20 | 
9 | O=C1CCC(N2Cc3c(NC(=O)CNc4ccnc(N5CCC[C@@H]5CO)n4)cccc3C2=O)C(=O)N1 (stereo partly drawn) [Compound 14, N-(2-(2,6-dioxopiperidin-3-yl)-1-oxoisoindolin-4-yl)-2-((2-((R)-2-(hydroxymethyl)pyrrolidin-1-yl)pyrimidin-4-yl)amino)acetamide] | 5.80 | 6.36 | 

Continued, values first:

Row | pIC50 [1] | pKi [1] | pEC50 [2] | Structure (SMILES)
10 | 4.72 | 5.27 |  | COc1ccc(OC)c(-c2nccc(NCC(=O)Nc3cccc4c3CN(C3CCC(=O)NC3=O)C4=O)n2)c1 (stereo not shown) [Compound 10, 2-((2-(2,5-dimethoxyphenyl)pyrimidin-4-yl)amino)-N-(2-(2,6-dioxopiperidin-3-yl)-1-oxoisoindolin-4-yl)acetamide]
11 | 4.83 | 5.38 |  | O=C1CCC(N2Cc3c(NC(=O)CNc4ccnc(-c5ccc(F)cc5)n4)cccc3C2=O)C(=O)N1 (stereo not shown) [Compound 11, N-(2-(2,6-dioxopiperidin-3-yl)-1-oxoisoindolin-4-yl)-2-((2-(4-fluorophenyl)pyrimidin-4-yl)amino)acetamide]
12 | 4.86 | 5.41 |  | CC(=O)c1ccc(-c2nccc(NCC(=O)Nc3cccc4c3CN(C3CCC(=O)NC3=O)C4=O)n2)cc1 (stereo not shown) [Compound 12, 2-((2-(4-acetylphenyl)pyrimidin-4-yl)amino)-N-(2-(2,6-dioxopiperidin-3-yl)-1-oxoisoindolin-4-yl)acetamide]
13 | 4.54 | 5.08 |  | O=C1CCC(N2Cc3c(NC(=O)CNc4ccnc(-c5cc6ccccc6o5)n4)cccc3C2=O)C(=O)N1 (stereo not shown) [Compound 13, 2-((2-(benzofuran-2-yl)pyrimidin-4-yl)amino)-N-(2-(2,6-dioxopiperidin-3-yl)-1-oxoisoindolin-4-yl)acetamide]
14 | 4.82 | 5.37 |  | COc1ccccc1Nc1nccc(NCC(=O)Nc2cccc3c2CN(C2CCC(=O)NC2=O)C3=O)n1 (stereo not shown) [Compound 15, N-(2-(2,6-dioxopiperidin-3-yl)-1-oxoisoindolin-4-yl)-2-((2-((2-methoxyphenyl)amino)pyrimidin-4-yl)amino)acetamide]
15 | 6.29 | 6.89 |  | O=C1CCC(N2Cc3c(NC(=O)CNc4ccnc(N5CCN(c6cccc(C(F)(F)F)c6)CC5)n4)cccc3C2=O)C(=O)N1 (stereo not shown) [Compound 16, N-(2-(2,6-dioxopiperidin-3-yl)-1-oxoisoindolin-4-yl)-2-((2-(4-(3-(trifluoromethyl)phenyl)piperazin-1-yl)pyrimidin-4-yl)amino)acetamide]
16 | 5.46 | 6.01 |  | CN(c1ccccc1)c1nccc(NCC(=O)Nc2cccc3c2CN(C2CCC(=O)NC2=O)C3=O)n1 (stereo not shown) [Compound 17, N-(2-(2,6-dioxopiperidin-3-yl)-1-oxoisoindolin-4-yl)-2-((2-(methyl(phenyl)amino)pyrimidin-4-yl)amino)acetamide]
17 |  |  | 6.18 | CC(C)n1cnc2c(Nc3cccc4c3CN(C3CCC(=O)NC3=O)C4=O)nc(Nc3ccc4c(c3)CCC4)nc21 (stereo not shown) [Compound 53, 3-(4-((2-((2,3-dihydro-1H-inden-5-yl)amino)-9-isopropyl-9H-purin-6-yl)amino)-1-oxoisoindolin-2-yl)piperidine-2,6-dione]
